# Laboratory results reported in patent US20220096510A1, “METHOD AND PHARMACOLOGICAL COMPOSITION FOR THE PREVENTION OF RECURRENT INFECTIONS CAUSED BY CLOSTRIDIUM DIFFICILE” (UNIVERSIDAD ANDRÉS BELLO, priority 2018, published 2022).
# Experiments:
# [1] = system: C. difficile; conditions: cited from earlier work; for patients who presented late R-CDI: after 28 days
# [2] = system: C. difficile toxin TcdB; conditions: patients with CDI; cited from earlier work
# [3] = system: C. difficile strain R20291; assay: Murine R-CDI model, intraperitoneal nystatin before and during CDI with oral vancomycin (Example 4)
# [4] = system: C. difficile spores; format: in vivo, C57BL/6 mice; conditions: day 2; nystatin 8,500 IU/kg oral from day -1
# [5] = system: C. difficile
# Source text: Mice were infected and dosed with an oral solution comprising a combination of nystatin and vancomycin starting from day 3 after infection (time of manifestation of the clinical symptoms).
# In this sense, we studied the effect of a formulation comprising nystatin together with vancomycin administered from day 3.
# [6] = system: T84 cells; assay: Cell viability by the trypan blue and MTT methods, T84; format: cell-based; conditions: results not shown
# [7] = system: Caco-2 cells; assay: Cell viability by the trypan blue and MTT methods, Caco-2; format: cell-based; conditions: results not shown
# [8] = system: C. difficile R20291 spores in Caco-2 cells; assay: Internalized (taurocholate- and ethanol-resistant) spores in infected Caco-2 cells by the seeding method; format: cell-based; conditions: 30 μM nystatin before and during infection; then 0.1% taurocholate 1 h and 70% ethanol
# [9] = system: C. difficile; conditions: used after vancomycin; cited from earlier work
# [10] = system: C. difficile; conditions: 10 mM; cited from earlier work
smiles,measurement,setting,value
CCc1c(Cl)c(O)c(Cl)c(O)c1C(=O)O[C@H]1[C@H](O)[C@H](OC)[C@H](OC/C2=C\C=C\C[C@H](O)/C(C)=C/[C@H](CC)[C@@H](O[C@@H]3OC(C)(C)[C@@H](OC(=O)C(C)C)[C@H](O)[C@@H]3O)/C(C)=C/C(C)=C/C[C@@H]([C@@H](C)O)OC2=O)O[C@@H]1C [fidaxomicin],patients who presented late R-CDI,[1],19.7%
same,patients who presented early recurrences,[1],8%
CN[C@H](CC(C)C)C(=O)N[C@H]1C(=O)N[C@@H](CC(N)=O)C(=O)N[C@H]2C(=O)N[C@H]3C(=O)N[C@H](C(=O)N[C@H](C(=O)O)c4cc(O)cc(O)c4-c4cc3ccc4O)[C@H](O)c3ccc(c(Cl)c3)Oc3cc2cc(c3O[C@@H]2O[C@H](CO)[C@@H](O)[C@H](O)[C@H]2O[C@H]2C[C@](C)(N)[C@H](O)[C@H](C)O2)Oc2ccc(cc2Cl)[C@H]1O [vancomycin],patients who presented late R-CDI,[1],35.5%
same,patients who presented early recurrences,[1],27%
same,R-CDI rates,[2],27%
same,mice presenting recurrence,"[3]; 5 days after finishing vancomycin 50 mg/kg, 7 days",100%
same,levels of spores in stools,[4],3.8 logarithmic units
same,"weight loss on day 11, the day of recurrence","[5]; after discontinuing treatment on day 8, nystatin 4,250 and 17,000 IU/kg",suffered a weight loss
same,mice presenting recurrence,"[5]; vancomycin 50 mg/kg alone, 5 days from day 3",75%
C[C@@H]1[C@H](O)[C@@H](C)/C=C/C=C/CC/C=C/C=C/C=C/C=C/C(O[C@H]2O[C@H](C)[C@@H](O)[C@H](N)[C@@H]2O)CC2O[C@](O)(CC(O)C(O)CCC(O)CC(O)CC(O)CC(=O)O[C@H]1C)CC(O)C2C(=O)O (stereo partly shown) [nystatin],weight increase on day 11 in respect of day 0,"[3]; nystatin 12,000 IU/kg I.P. with vancomycin 50 mg/kg oral",6%
same,weight variation versus control group,"[3]; nystatin 12,000 IU/kg I.P. with vancomycin 50 mg/kg oral, versus vancomycin alone",no significant weight variations
same,cell viability,[6],no differences
same,cell viability,[7],no differences
same,amount of CFU counted (ethanol-resistant spores),[8],significant decrease
CO[C@H]1/C=C/O[C@@]2(C)Oc3c(C)c(O)c4c(O)c(c5c(nc6cc(C)ccn65)c4c3C2=O)NC(=O)/C(C)=C\C=C\[C@H](C)[C@H](O)[C@@H](C)[C@@H](O)[C@@H](C)[C@H](OC(C)=O)[C@@H]1C [rifaximin],efficiency rate,[9],64%
N[C@@H](CS)C(=O)O [cysteine],toxin production in vitro,[10],reduces toxin production
